Data set [1] addresses T1, TrxR1 (thioredoxin reductase 1) (Rattus norvegicus, UniProt O89049).
T1 construct: gene Txnrd1
T1 sequence (O89049 1-499): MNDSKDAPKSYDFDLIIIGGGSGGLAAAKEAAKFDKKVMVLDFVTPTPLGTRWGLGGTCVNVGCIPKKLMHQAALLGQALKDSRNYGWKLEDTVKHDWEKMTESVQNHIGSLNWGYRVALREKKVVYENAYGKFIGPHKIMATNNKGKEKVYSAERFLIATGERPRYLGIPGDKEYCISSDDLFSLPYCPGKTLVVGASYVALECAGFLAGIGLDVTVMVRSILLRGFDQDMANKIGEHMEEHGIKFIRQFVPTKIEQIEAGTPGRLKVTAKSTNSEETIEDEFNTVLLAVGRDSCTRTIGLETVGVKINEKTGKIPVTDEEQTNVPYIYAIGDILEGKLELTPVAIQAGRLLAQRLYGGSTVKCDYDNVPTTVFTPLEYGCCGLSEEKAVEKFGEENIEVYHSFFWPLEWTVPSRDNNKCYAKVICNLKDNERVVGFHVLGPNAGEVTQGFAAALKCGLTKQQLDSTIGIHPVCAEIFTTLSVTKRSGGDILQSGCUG
Put plainly: fluorescence quenching (Stern-Volmer) with GST as control; also DTNB assay on recombinant TrxR1, IC50 […]. The class given is binding.

Data set [2] deals with T1, TrxR1 (thioredoxin reductase 1). Put plainly: DTNB assay on purified recombinant TrxR1, […] h incubation.

The source of these data is publication PMC12141336, “A dual inhibitor of TrxR1 and XIAP induces pyroptosis in melanoma” (Frontiers in Cell and Developmental Biology, 2025).

For the molecule `CC(=O)CC#[C][Au][P](c1ccccc1)(c1ccccc1)C1CCCCC1` [TRI-03], the dissociation constant Kd in data set [1] came to 310 ± 50 nM.

Take `CC[P](CC)(CC)=[Au][S][C@@H]1O[C@H](COC(C)=O)[C@@H](OC(C)=O)[C@H](OC(C)=O)[C@H]1OC(C)=O` [auranofin]: the IC50 in data set [2] was 1470 ± 30 nM.
